According to ChEMBL document CHEMBL1138982 (Bioorg Med Chem Lett, 2006):
pKi: −log10 of the molar value.

Biological target: Substance-P receptor (Homo sapiens, UniProt P25103)
Experiment: Displacement of [3H]-labeled substance P from cloned human NK1 receptor expressed in CHO cells
Assay type: cell-based
Details: not given

Substance-P receptor, sequence (P25103 whole entry): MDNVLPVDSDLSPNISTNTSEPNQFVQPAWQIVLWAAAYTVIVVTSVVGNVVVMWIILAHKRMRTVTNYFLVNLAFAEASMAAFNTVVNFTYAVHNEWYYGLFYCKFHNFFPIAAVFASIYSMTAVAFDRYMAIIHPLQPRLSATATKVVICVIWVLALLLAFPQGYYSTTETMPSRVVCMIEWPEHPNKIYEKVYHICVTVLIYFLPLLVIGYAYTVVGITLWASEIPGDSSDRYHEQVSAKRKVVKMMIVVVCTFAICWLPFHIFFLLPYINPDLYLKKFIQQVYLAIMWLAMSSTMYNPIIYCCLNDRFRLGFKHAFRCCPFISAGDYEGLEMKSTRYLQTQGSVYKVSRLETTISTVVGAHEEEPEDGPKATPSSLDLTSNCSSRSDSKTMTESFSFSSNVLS

Row | SMILES | pKi
1 | CN(Cc1cc(C(F)(F)F)cc(C(F)(F)F)c1)C(=O)c1ccccc1-c1ccccc1Br | 7.35
2 | CC(C)(NC(=O)c1ccccc1-c1ccccc1)c1cc(C(F)(F)F)cc(C(F)(F)F)c1 | < 5.00
3 | CN(Cc1cc(C(F)(F)F)cc(C(F)(F)F)c1)C(=O)c1ccccc1-c1ccccc1 | 7.29
4 | Cc1ccccc1-c1cccnc1N(C)C(=O)C(C)(C)c1cc(C(F)(F)F)cc(C(F)(F)F)c1 | 8.40
5 | Cc1ccccc1-c1nc(N2CCN(C)CC2)ncc1N(C)C(=O)C(C)(C)c1cc(C(F)(F)F)cc(C(F)(F)F)c1 | 9.36
6 | CN(C(=O)C(C)(C)c1cc(C(F)(F)F)cc(C(F)(F)F)c1)c1ccccc1-c1ccccc1 | 7.17
7 | Clc1cncc(Cl)c1N/N=C/c1ccccc1-c1c(Cl)cccc1Cl | 7.03
8 | Cc1onc(-c2c(Cl)cccc2Cl)c1/C=N/Nc1c(Cl)cncc1Cl | 7.82
9 | Cc1ccccc1-c1ccncc1C(=O)N(C)Cc1cc(C(F)(F)F)cc(C(F)(F)F)c1 | 8.07
10 | Cc1ccccc1-c1nc(N2CCN(C)CC2)ncc1C(=O)N(C)Cc1cc(C(F)(F)F)cc(C(F)(F)F)c1 | 8.77
11 | Cc1ccccc1-c1cc(N2CCN(C)CC2)ccc1C(=O)N(C)Cc1cc(C(F)(F)F)cc(C(F)(F)F)c1 | 8.85
12 | Cc1ccccc1-c1cnccc1N(C)C(=O)C(C)(C)c1cc(C(F)(F)F)cc(C(F)(F)F)c1 | 8.48
13 | Clc1cncc(Cl)c1N/N=C/c1ccccc1-c1ccccc1Br | 7.31
14 | Cc1ccccc1-c1cnccc1C(=O)N(C)Cc1cc(C(F)(F)F)cc(C(F)(F)F)c1 | 8.34
15 | FC(F)(F)c1cc(COCc2ccccc2-c2ccccc2)cc(C(F)(F)F)c1 | 6.65
16 | Cc1ccccc1-c1cccnc1C(=O)N(C)Cc1cc(C(F)(F)F)cc(C(F)(F)F)c1 | 8.42

Row | SMILES | pKi
17 | Cc1ccccc1-c1ccc(N2CCN(C)CC2)nc1N(C)C(=O)C(C)(C)c1cc(C(F)(F)F)cc(C(F)(F)F)c1 | 8.70
18 | Cc1ccccc1-c1cc(N2CCS(=O)(=O)CC2)ncc1N(C)C(=O)C(C)(C)c1cc(C(F)(F)F)cc(C(F)(F)F)c1 | 8.89
19 | FC(F)(F)c1cc(CNCc2ccccc2-c2ccccc2)cc(C(F)(F)F)c1 | 6.43
20 | Cc1ccccc1-c1ccc(N2CCN(C)CC2)nc1C(=O)N(C)Cc1cc(C(F)(F)F)cc(C(F)(F)F)c1 | 8.21
21 | Cc1ccccc1-c1ccccc1/C=N/Nc1c(Cl)cncc1Cl | 6.50
22 | CN(C(=O)Cc1cc(C(F)(F)F)cc(C(F)(F)F)c1)c1ccccc1-c1ccccc1 | 6.25
23 | Cc1ccccc1-c1cnc(N2CCN(C)CC2)nc1N(C)C(=O)C(C)(C)c1cc(C(F)(F)F)cc(C(F)(F)F)c1 | 8.96
24 | CN(Cc1cc(C(F)(F)F)cc(C(F)(F)F)c1)C(=O)c1ccccc1-c1ccccc1Cl | 7.66
25 | Cc1ccccc1-c1cc(N2CCC(O)CC2)ncc1N(C)C(=O)C(C)(C)c1cc(C(F)(F)F)cc(C(F)(F)F)c1 | 9.40
26 | O=C(NCc1cc(C(F)(F)F)cc(C(F)(F)F)c1)c1ccccc1-c1ccccc1 | < 5.00
27 | Cc1ccccc1-c1cnc(N2CCN(C)CC2)cc1N(C)C(=O)C(C)(C)c1cc(C(F)(F)F)cc(C(F)(F)F)c1 | 8.77
28 | Clc1cncc(Cl)c1N/N=C/c1ccccc1-c1ccccc1 | 6.03
29 | Clc1ccccc1-c1ccccc1/C=N/Nc1c(Cl)cncc1Cl | 6.76
30 | CN(C(=O)c1ccccc1-c1ccccc1)C(C)(C)c1cc(C(F)(F)F)cc(C(F)(F)F)c1 | 6.53
31 | CN(Cc1cc(C(F)(F)F)cc(C(F)(F)F)c1)Cc1ccccc1-c1ccccc1 | 6.14
32 | Cc1ccccc1-c1cc(N2CCN(C)CC2)ncc1N(C)C(=O)C(C)(C)c1cc(C(F)(F)F)cc(C(F)(F)F)c1 [NETUPITANT] | 9.02

Tested on: Gerbil, jird
Experiment: Inhibition of GR-73632 induced foot tapping in gerbil, po
Assay type: functional
Details: Meriones, read-out: ID50 (the source's name)

Row | SMILES | ED50 [mg/kg]
33 | Cc1ccccc1-c1cc(N2CCS(=O)(=O)CC2)ncc1N(C)C(=O)C(C)(C)c1cc(C(F)(F)F)cc(C(F)(F)F)c1 | 0.8
34 | Cc1ccccc1-c1cc(N2CCC(O)CC2)ncc1N(C)C(=O)C(C)(C)c1cc(C(F)(F)F)cc(C(F)(F)F)c1 | 0.5
35 | Cc1ccccc1-c1cc(N2CCOCC2)ncc1N(C)C(=O)C(C)(C)c1cc(C(F)(F)F)cc(C(F)(F)F)c1 [BEFETUPITANT] | 0.2
36 | Cc1ccccc1-c1cc(N2CCN(C)CC2)ncc1N(C)C(=O)C(C)(C)c1cc(C(F)(F)F)cc(C(F)(F)F)c1 [NETUPITANT] | 0.5
